# Like-named read-outs stand apart in the source and are kept apart here. Marks after values point to notes of the source that are not given here.
# Columns and labels:
# adult zebra mussels = test system: adult zebra mussels
# Protocol: Laboratory research was carried out to investigate potash for mussel control by itself or in combination with oxidizing agents such as chlorine or hydrogen peroxide.
# Experiments were carried out with adult zebra mussels using potassium chloride (KCl) alone, as well as chloramine, hydrogen peroxide and combinations thereof to determine the estimated time to 95% mortality. Experimentation was carried out at 100 mg/L K^+ and test temperatures ranged from 2 to 30° C.
# Ceriodaphnia dubia = assay: KCl toxicity test on non-target species (EPS protocol); format: in vivo
# Protocol: (§1) Studies were performed to investigate the environmental effects on non-target species of treatment with concentrations of potassium effective for controlling zebra mussels. As set out below, potassium when discharged at concentrations of 100 mg/l or less is an environmentally benign method of zebra mussel control. This is an important advantage over other methods of controlling zebra mussels such as by the use of chlorine or other oxidizing agents which can result in significant non-target species toxicity.
# (§2) A stock solution at 1000 mg/l KCl was used to set all tests. Dilutions were made from these stocks. Test methods were as dictated by EPS protocols for each test organism.
# Daphnia magna = assay: as above; format: in vivo; conditions: acute test
# Protocol: as §1, §2
# Fathead minnow = assay: as above; format: in vivo
# Protocol: as §1, §2
# Rainbow trout = assay: as above; format: in vivo; conditions: acute test
# Protocol: as §1, §2
# [1] = test system: young adult (<1.5 cm) zebra mussels; assay: Flow-through contact chamber mortality study, adult mussels; format: in vivo; conditions: for Final mortality of adult mussels: end of the 52 day trial
# Protocol: (§3) Mortality studies using flow through contact chambers were performed with young adult (<1.5 cm) zebra mussels and naturally occurring veliger populations at a small tributary of a canal located in southern Ontario, Canada. Water temperatures ranged between 20 and 25° C. throughout the trial.
# Adult zebra mussels were exposed to three concentrations of K^+ (40 mg/l, 30 mg/l, and 20 mg/l) as well as a control chamber. Each concentration as well as the control was replicated three times. The nature of the design allowed for simultaneous trials with adults and veligers. Sixty adult mussels (six groups of ten) were exposed in each replicate test concentration and control tank. Mussels were contained in PVC mesh baskets which allowed free flow of water while maintaining the mussels in discrete groups of ten.
# (§4) A concentrated potassium solution was metered into each replicate test line prior to its entering the test tanks from a pre-mixed batch tank. Potassium source was commercial grade potash which was 60% potassium by weight. The potassium concentration was controlled through differential metering rates. Flow-through trials were carried out for 52 days at which point final mortality in adults was recorded.
# [2] = test system: naturally occurring veliger larvae; assay: Larval settlement on PVC settling plates in flow-through tanks; format: in vivo, zebra mussel (Dreissena polymorpha); conditions: 52 day trial period; for Larval (veliger) settlement: 30 mg/l K+
# Protocol: as §3
# In addition to adult trials, six PVC settling plates were installed in one replicate tank at each test concentration as well as the control. The presence of naturally occurring veliger larvae in the water source provided the opportunity of determining settling rates at each test concentration.
# as §4
smiles,measurement,setting,value
"OO [H2O2, hydrogen peroxide]",Estimated time (hours) to 95% mortality,"adult zebra mussels; H2O2 5 mg/L, 12-14 °C, extrapolated value",1714* hours
same,Estimated time (hours) to 95% mortality,"adult zebra mussels; H2O2 5 mg/L, 20-21 °C, extrapolated value",455* hours
same,Estimated time (hours) to 95% mortality,"adult zebra mussels; H2O2 5 mg/L, 22-24 °C, extrapolated value",294* hours
same,Estimated time (hours) to 95% mortality,"adult zebra mussels; H2O2 10 mg/L, 12-14 °C",227 h
same,Estimated time (hours) to 95% mortality,"adult zebra mussels; H2O2 10 mg/L, 20-21 °C",36 h
same,Estimated time (hours) to 95% mortality,"adult zebra mussels; H2O2 10 mg/L, 22-24 °C",21 h
"[Cl-].[K+] [KCl, potassium chloride]",Estimated time (hours) to 95% mortality,"adult zebra mussels; KCl at 100 mg/L K+, 10-12 °C, extrapolated value",283* hours
same,Estimated time (hours) to 95% mortality,"adult zebra mussels; KCl at 100 mg/L K+, 12-14 °C",165 h
same,Estimated time (hours) to 95% mortality,"adult zebra mussels; KCl at 100 mg/L K+, 13-17 °C",113 h
same,Estimated time (hours) to 95% mortality,"adult zebra mussels; KCl at 100 mg/L K+, 14-26 °C",22 h
same,Estimated time (hours) to 95% mortality,"adult zebra mussels; KCl at 100 mg/L K+, 20-21 °C",56 h
same,Estimated time (hours) to 95% mortality,"adult zebra mussels; KCl at 100 mg/L K+, 22-24 °C, extrapolated value",33* hours
same,IC25,Ceriodaphnia dubia,189.3 µg/mL
same,IC50,Ceriodaphnia dubia,256.8 µg/mL
same,LC50,Ceriodaphnia dubia,219.6 µg/mL
same,GROWTH/REPRODUCTIVE DATA LOEC,Ceriodaphnia dubia; NED = no effect detected,NED
same,GROWTH/REPRODUCTIVE DATA NOEC,Ceriodaphnia dubia; NED = no effect detected,NED
same,GROWTH/REPRODUCTIVE DATA TEC,Ceriodaphnia dubia; NED = no effect detected,NED
same,SURVIVAL DATA LOEC,Ceriodaphnia dubia; chronic test,385 mg/L
same,SURVIVAL DATA NOEC,Ceriodaphnia dubia; chronic test,193 mg/L
same,SURVIVAL DATA TEC (threshold effect concentration),Ceriodaphnia dubia; chronic test,272.6 mg/L
same,LC50,Daphnia magna,188.8 µg/mL
same,IC25,Fathead minnow,736.2 µg/mL
same,IC50,Fathead minnow,892.5 µg/mL
same,LC50,Fathead minnow,512.7 µg/mL
same,GROWTH/REPRODUCTIVE DATA LOEC,Fathead minnow; NED = no effect detected,NED
same,GROWTH/REPRODUCTIVE DATA NOEC,Fathead minnow; NED = no effect detected,NED
same,GROWTH/REPRODUCTIVE DATA TEC,Fathead minnow; NED = no effect detected,NED
same,SURVIVAL DATA LOEC,Fathead minnow; chronic test,603 mg/L
same,SURVIVAL DATA NOEC,Fathead minnow; chronic test,302 mg/L
same,SURVIVAL DATA TEC (threshold effect concentration),Fathead minnow; chronic test,426.7 mg/L
same,LC50,Rainbow trout,1248.4 µg/mL
NCl [chloramine],Estimated time (hours) to 95% mortality,"adult zebra mussels; chloramine 0.5 mg/L, 10-12 °C, extrapolated value",480* hours
same,Estimated time (hours) to 95% mortality,"adult zebra mussels; chloramine 0.5 mg/L, 14-26 °C, extrapolated value",97* hours
same,Estimated time (hours) to 95% mortality,"adult zebra mussels; chloramine 1.0 mg/L, 10-12 °C",258 h
same,Estimated time (hours) to 95% mortality,"adult zebra mussels; chloramine 1.0 mg/L, 13-17 °C",209 h
same,Estimated time (hours) to 95% mortality,"adult zebra mussels; chloramine 1.0 mg/L, 14-26 °C",60 h
same,Estimated time (hours) to 95% mortality,"adult zebra mussels; chloramine 2.0 mg/L, 13-17 °C",87 h
[K+] [potassium cation],Zebra mussel mortality,"adult zebra mussels; 100 mg/L potassium, in 48 hours, water temperatures above 15 °C",100%
same,Estimated time (hours) to 95% mortality,"adult zebra mussels; KCl at 100 mg/L K+, 14-26 °C",22 h
same,Final mortality of adult mussels,"[1]; 20 mg/l K+, water 20-25 °C",73%
same,Final mortality of adult mussels,"[1]; 30 mg/l K+, water 20-25 °C",91%
same,Mortality of a target population,"[1]; 40 mg/L potassium, within two weeks, water temperatures above 15 °C",up to 100%
same,Time to complete mortality of adult mussels,"[1]; 40 mg/l K+, flow-through, water 20-25 °C",≤ 25 days
same,Mortality of zebra mussels over time (in words),[1]; 40 mg/l potassium,significant mortality within two weeks and complete mortality in this trial in just over three weeks
same,Larval (veliger) settlement,[2],No larval settlement was detected
same,Larval (veliger) settlement,[2]; listed as Potassium,effective at preventing settlement of veligers
same,Larval settlement,[2]; 40 mg/l K+,No larval settlement was detected

# Reference: US9003693B2, “Control of zebra mussels in closed service water systems” (ASI Group Ltd., priority 2013, dated 2015)
